Assay results taken from patent USRE47047E1, “5-[(3,3,3-trifluoro-2-hydroxy-1-arylpropyl)amino]-1H-quinolin-2-ones, a process for their production and their use as anti-inflammatory agents” (ASTRAZENECA AB, priority 2007, dated 2018).

How the values were obtained:
[1] = molecular target: T1, glucocorticoid receptor (GR) (Homo sapiens, UniProt P04150); test: Binding to the glucocorticoid receptor (GR), recombinant receptor in cytosol preparations of Sf9 cells, [3H]-dexamethasone as reference; details: reference [3H]-dexamethasone
T1 construct: made in house; host or cells: Sf9 insect cells infected with recombinant baculovirus; cytosol preparation
T1 sequence (P04150 1-777): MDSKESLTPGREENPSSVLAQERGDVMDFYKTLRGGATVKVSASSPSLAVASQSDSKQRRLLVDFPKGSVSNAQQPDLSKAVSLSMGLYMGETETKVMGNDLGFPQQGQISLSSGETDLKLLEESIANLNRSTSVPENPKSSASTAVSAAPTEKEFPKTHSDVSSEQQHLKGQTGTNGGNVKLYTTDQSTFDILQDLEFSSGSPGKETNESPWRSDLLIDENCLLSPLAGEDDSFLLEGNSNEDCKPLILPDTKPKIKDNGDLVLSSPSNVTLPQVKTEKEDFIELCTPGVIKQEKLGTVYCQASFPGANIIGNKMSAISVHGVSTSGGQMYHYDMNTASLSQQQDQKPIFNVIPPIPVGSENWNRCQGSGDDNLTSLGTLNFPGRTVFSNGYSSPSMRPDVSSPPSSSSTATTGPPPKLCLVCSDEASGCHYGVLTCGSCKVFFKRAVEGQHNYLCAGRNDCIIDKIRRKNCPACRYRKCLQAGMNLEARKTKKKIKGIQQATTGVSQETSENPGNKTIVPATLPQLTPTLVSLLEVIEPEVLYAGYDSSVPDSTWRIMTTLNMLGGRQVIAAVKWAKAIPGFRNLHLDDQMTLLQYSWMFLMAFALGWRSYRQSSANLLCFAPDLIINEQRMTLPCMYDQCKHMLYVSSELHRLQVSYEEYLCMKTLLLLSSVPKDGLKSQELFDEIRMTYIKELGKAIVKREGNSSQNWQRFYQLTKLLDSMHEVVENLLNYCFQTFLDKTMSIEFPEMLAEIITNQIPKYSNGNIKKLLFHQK
Source text: The binding of the substances to the glucocorticoid receptor (GR) and other steroid hormone receptors (mineral corticoid receptor (MR), progesterone receptor (PR) and androgen receptor (AR)) is examined with the aid of recombinantly produced receptors. Cytosol preparations of Sf9 cells, which had been infected with recombinant baculoviruses, which code for the GR, are used for the binding studies. In comparison to reference substance [^3H]-dexamethasone, the substances show a high to very high affinity to GR.

[2] = test system: IL-8 secretion in human monocyte cell line THP-1; test: Inhibition of LPS-triggered secretion of cytokine IL-8 in THP-1 cells (ELISA); assay type: cell-based; details: for IC50: Homo sapiens, THP-1 cells, LPS-triggered, ELISA of supernatant, read-out: IC50(IL8); for efficacy of IL-8 inhibition: in comparison with dexamethasone as reference
Method: The concentration of the cytokines was determined in the supernatant by means of commercially available ELISA kits.

SMILES | IC50 [1] | IC50 [2] | efficacy of IL-8 inhibition [2]
COc1ccc(C(Nc2cccc3[nH]c(=O)ccc23)C(O)(CSC)C(F)(F)F)c(F)c1 (stereo not drawn) [Example 1, 5-{[1-(2-Fluoro-4-methoxyphenyl)-3,3,3-trifluoro-2-hydroxy-2-([methylsulfanyl]methyl)propyl]amino}-1H-quinolin-2-one] | 6.8 nM | – | –
CCSCC(O)(C(Nc1cc(F)cc2[nH]c(=O)ccc12)c1ccc(OC)c(F)c1Cl)C(F)(F)F (stereo not drawn) [Example 4, 5-{[1-(2-Chloro-3-fluoro-4-methoxyphenyl)-2-([ethylsulfanyl]methyl)-3,3,3-trifluoro-2-hydroxypropyl]amino}-7-fluoro-1H-quinolin-2-one] | 5.7 nM | 0.61 nM | 97%
COCC(O)(C(Nc1cc(F)cc2[nH]c(=O)ccc12)c1ccc(OC)c(F)c1Cl)C(F)(F)F (stereo not drawn) [Example 5, 5-{[1-(2-Chloro-3-fluoro-4-methoxyphenyl)-3,3,3-trifluoro-2-hydroxy-2-(methoxymethyl)propyl]amino}-7-fluoro-1H-quinolin-2-one] | 3.1 nM | 0.19 nM | 98%

More lines, main results first:

IC50 [1] | IC50 [2] | SMILES | efficacy of IL-8 inhibition [2]
7.1 nM | 0.44 nM | COc1ccc(C(Nc2cc(F)cc3[nH]c(=O)ccc23)C(O)(CO)C(F)(F)F)c(Cl)c1F (stereo not drawn) [Example 7, 5-{[1-(2-Chloro-3-fluoro-4-methoxyphenyl)-3,3,3-trifluoro-2-hydroxy-2-(hydroxymethyl)-propyl]amino}-7-fluoro-1H-quinolin-2-one] | 98%
– | 3.1 nM | COc1c(F)cc(Cl)cc1C(Nc1cc(F)cc2[nH]c(=O)ccc12)C(O)(CO)C(F)(F)F (stereo not drawn) [Example 8, 5-{[1-(5-Chloro-3-fluoro-2-methoxyphenyl)-3,3,3-trifluoro-2-hydroxy-2-(hydroxymethyl)-propyl]amino}-7-fluoro-1H-quinolin-2-one] | 80%
